{"source": "patent US12569503B2", "about": "“Methods and compositions for substituted axially-chiral cannabinol analogs” (University of Florida Research Foundation, Inc., priority 2019, dated 2026)", "key": {"[1]": {"tested_on": "C57bl/6j mice", "assay": "Reduction of body temperature (hypothermia)", "settings": "for Effect on body temperature (in words): mice, THC 10-56 mg/kg, ax-CBN 56-320 mg/kg"}, "[2]": {"tested_on": "mice", "assay": "Acute thermal antinociception (tail-flick, modified tetrad assay)", "type": "in vivo", "settings": "THC 10-56 mg/kg, ax-CBN 56-320 mg/kg"}, "[3]": {"tested_on": "mice", "assay": "Locomotion measured as ambulatory time (modified tetrad assay)", "type": "in vivo", "settings": "for Locomotion (in words): modified tetrad assay, THC 10-56 mg/kg, ax-CBN 56-320 mg/kg"}, "[4]": {"assay": "Reduction of body temperature (hypothermia)", "settings": "C57bl/6j, mouse, in vivo, Body Temp. ED50 ((95% CL) mg/kg), Table 4; hypothermia"}, "[5]": {"assay": "Locomotion measured as ambulatory time (modified tetrad assay)", "type": "in vivo, mice", "settings": "C57bl/6j, mouse, in vivo; Table 4; read-out: Hypolocomotion ED50 ((95% CL)"}, "[6]": {"target": "cannabinoid receptors", "settings": "in a variety of studies, cited from earlier work"}, "[7]": {"tested_on": "mice trained to discriminate 10 mg/kg THC", "settings": "rimonabant 0.32 and 1 mg/kg versus vehicle; cited from earlier work"}}, "note": "“Also recorded” adds a separate entry of the source.", "data": [{"compound": "10-methyl-CBN [ax-CBN]", "values": [{"measurement": "Body Temp. ED50 ((95% CL)", "setting": "[1]; Table 4, hypothermia", "result": 308.98, "unit": "mg/kg"}, {"measurement": "Effect on body temperature (in words)", "setting": "[1]", "result": "hypothermia"}, {"measurement": "Acute thermal antinociception (in words)", "setting": "[2]", "result": "dose-relatedly produced thermal antinociception"}, {"measurement": "Hypolocomotion ED50 ((95% CL)", "setting": "[3]; Table 4", "result": 290.20, "unit": "mg/kg"}, {"measurement": "Locomotion (in words)", "setting": "[3]", "result": "decreased locomotion"}]}, {"compound": "CCCCCc1cc(O)c2c(c1)OC(C)(C)[C@@H]1CCC(C)=C[C@@H]21", "note": "[THC, (−)-trans-Δ^9-tetrahydrocannabinol]", "values": [{"measurement": "Effect on body temperature (in words)", "setting": "[1]", "result": "robust depression of body temperature; also recorded: hypothermia"}, {"measurement": "ED50", "setting": "[4]", "result": 17.5, "unit": "mg/kg"}, {"measurement": "Acute thermal antinociception (in words)", "setting": "[2]", "result": "dose-relatedly produced thermal antinociception"}, {"measurement": "Locomotion (in words)", "setting": "[3]", "result": "decreased locomotion"}, {"measurement": "ED50", "setting": "[5]", "result": 25.5, "unit": "mg/kg"}, {"measurement": "Ki", "setting": "[6]; read-out: Binding affinity for cannabinoid receptors", "result": "20 to 40", "unit": "nM"}]}, {"compound": "Cc1c(C(=O)NN2CCCCC2)nn(-c2ccc(Cl)cc2Cl)c1-c1ccc(Cl)cc1", "note": "[rimonabant]", "values": [{"measurement": "Effect on THC dose effect in drug discrimination (in words)", "setting": "[7]", "result": "antagonizes the dose effect of THC"}]}, {"compound": "CCCCCc1cc(O)c2c(c1)OC(C)(C)c1ccc(C)cc1-2", "note": "[CBN, cannabinol]", "values": [{"measurement": "Binding affinity for cannabinoid receptors", "setting": "[6]", "result": "significantly higher"}]}]}
